The target in experiment [1] is T1, IDE (Homo sapiens, UniProt P14735).
T1 construct: made in house; host or cells: bacteria
T1 sequence (P14735 1-1019): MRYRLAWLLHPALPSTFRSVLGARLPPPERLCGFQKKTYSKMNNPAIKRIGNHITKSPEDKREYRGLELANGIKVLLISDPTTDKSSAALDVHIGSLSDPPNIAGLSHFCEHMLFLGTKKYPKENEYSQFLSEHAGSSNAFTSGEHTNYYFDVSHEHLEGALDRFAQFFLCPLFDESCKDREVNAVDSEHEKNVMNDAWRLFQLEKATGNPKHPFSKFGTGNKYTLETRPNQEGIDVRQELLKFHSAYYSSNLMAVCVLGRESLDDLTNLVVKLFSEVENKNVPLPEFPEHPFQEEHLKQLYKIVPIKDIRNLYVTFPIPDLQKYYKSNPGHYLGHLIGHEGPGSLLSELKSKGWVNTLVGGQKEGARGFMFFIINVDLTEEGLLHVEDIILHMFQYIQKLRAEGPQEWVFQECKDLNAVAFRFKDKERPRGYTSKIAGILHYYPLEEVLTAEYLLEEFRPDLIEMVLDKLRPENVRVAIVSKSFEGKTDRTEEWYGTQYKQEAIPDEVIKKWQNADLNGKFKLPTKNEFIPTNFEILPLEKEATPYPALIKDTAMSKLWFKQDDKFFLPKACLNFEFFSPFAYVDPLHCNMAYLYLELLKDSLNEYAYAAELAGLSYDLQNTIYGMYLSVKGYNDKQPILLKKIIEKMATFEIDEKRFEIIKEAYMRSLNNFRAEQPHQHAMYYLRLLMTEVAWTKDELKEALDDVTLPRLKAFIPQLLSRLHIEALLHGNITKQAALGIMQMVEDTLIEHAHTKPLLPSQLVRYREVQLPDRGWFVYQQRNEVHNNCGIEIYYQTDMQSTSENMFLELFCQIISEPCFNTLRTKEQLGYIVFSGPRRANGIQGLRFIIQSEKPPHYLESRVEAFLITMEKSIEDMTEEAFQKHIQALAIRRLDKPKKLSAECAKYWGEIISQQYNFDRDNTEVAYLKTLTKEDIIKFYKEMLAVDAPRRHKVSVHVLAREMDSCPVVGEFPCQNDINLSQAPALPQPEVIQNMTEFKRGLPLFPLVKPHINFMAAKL
As to the kind of experiment: biochemical. To be noted: for Percent activity at 500 uM, Mean: N 4; for IC50: dose-response, FRET1. The method in brief:
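Recombinant human IDE (1 nM, bacterially expressed) degraded FRET1 substrate (5 μM), fluoresceinated biotinylated amyloid β (500 nM) or human insulin (50 nM) in PBS with 0.05% BSA. Peptides tested included N-acetylated and C-amidated variants.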

Experiment [2] concerns the target T1, IDE. In words: biochemical. Conditions: for IC50: insulin ELISA assay, dose-response. The text has this:
The six selected peptide sequences (C7C-1, C7C-2, 12–1, 12–2, 12–3 and 12–4) were synthesized, together with a variety of modifications, yielding a total of 25 peptides (Table 1). For the 12-mer peptides, we synthesized variants of the parent peptides truncated at one or both termini, to test whether the entire sequence was necessary or not, in the hope that shorter, and thus less expensive, sequences might be effective. Other modifications included N-terminal acetylation and C-terminal amidation, included to mimic the charge state of the peptides when incorporated in the phage coat protein (Table 1). To assess the extent to which these peptide sequences inhibit IDE, we quantified their potency in protease activity assays using recombinant human IDE and two different substrates: FRET1, a fluorogenic peptide, and recombinant human insulin.
(§1) IDE activity was quantified by monitoring the degradation of Mca-[…](Dnp) (FRET1, 5 μM), fluoresceinated and biotinylated amyloid ß-protein (FAßB; 500 nM) or recombinant human insulin (50 nM) in PBS supplemented with 0.05% BSA. FRET1 degradation was measured by changes in fluorescence (λex = 340 nm, λem = 420 nm); FAßB degradation was monitored by fluorescence polarization (λex = 488 nm, λem = 525 nm), as described; and insulin degradation was quantified by ELISA. In vitro activity assays incorporated recombinant human IDE (1 nM) purified from bacteria. For quantitation of insulin degradation in primary murine skin fibroblasts, cells (1 x 10^5/well) were plated in 96-well plates and maintained in DMEM supplemented with 10% fetal bovine serum (FBS), 2mM glutamine, penicillin and streptomycin. After addition of insulin (10 nM or 100 nM), samples of conditioned medium were removed daily and quickly frozen, then insulin levels were quantified in parallel by ELISA according to manufacturer’s recommendations (Crystal Chem, Downers Grove, IL, USA). Assessment of the activity of P12-3A against a variety of matrix-metalloproteases was conducted using the Matrix Metalloproteinase (MMP) Inhibitor Profiling Kit, Fluorometric RED (Enzo Life Sciences, Inc., Farmingdale, NY, USA) according to manufacturer’s recommendations using the broad-spectrum MMP inhibitor, NNGH, as a positive control.

The target in experiment [3] is T1, IDE. In words: Vulnerability of peptides to degradation by IDE: 0 vs 4 h pre-incubation, then FRET1 assay. Conditions: for IC50: FRET1 assay. The class given is biochemical. The procedure: as §1, with “FRET1 degradation was measured by changes in fluorescence (λex = 340 nm, λem = 420 nm); FAßB degradation was monitored by fluorescence polarization (λex = 488 nm, λem = 525 nm), as described; and insulin degradation was quantified by ELISA.” left out

The mark [4] stands for this setting: peptide at 10 uM, insulin 100 nM, normalized to DMSO-only and no-enzyme controls.

“And” between values parts separate entries of the source, which are not always exact repeats. Identical values can stand only once. Ends that are not written are not given here.

For the substance LPWCTPHC [P12-3D], the “Percent activity at 500 uM, Mean” value at IDE [1] (initial test, percent of initial velocity relative to DMSO-only controls) is 3.0%; on IDE [1] (judged as IC50 <100 uM?) it was 48.5%. The “percent decrease in insulin detected by ELISA, Replicate 1” value at IDE [2] (setting [4]) was determined as 77.7%. The “percent decrease in insulin detected by ELISA, Replicate 2” value on IDE [2] (setting [4]) came to 71.2%. At IDE [2] (setting [4]), the “percent decrease in insulin detected by ELISA, Replicate 3” value worked out at 96.7%. For the same substance, the “percent decrease in insulin detected by ELISA, Replicate 4” value on IDE [2] (setting [4]) was found to be 88.5%. Besides, the “percent decrease in insulin detected by ELISA, Mean” value on IDE [2] (peptide at 10 uM, insulin 100 nM, normalized to DMSO-only and no-enzyme controls, N=4) is 83.5%. Also, the “Percent Activity (normalized initial velocity of FRET1 hydrolysis)” value on IDE [3] (0-hr incubation, Cmpd 0.12207 uM, relative to DMSO-only controls, individual runs) is 96.4522% and 96.759% and 99.5993%; at IDE [3] (0-hr incubation, Cmpd 0.488281 uM, relative to DMSO-only controls, individual runs), 102.379% and 100.264% and 105.198%; at IDE [3] (0-hr incubation, Cmpd 1.95312 uM, relative to DMSO-only controls, individual runs), 104.101% and 99.4736% and 108.303%; at IDE [3] (0-hr incubation, Cmpd 7.8125 uM, relative to DMSO-only controls, individual runs) it was 98.6262% and 96.0429% and 106.212%; at IDE [3] (0-hr incubation, Cmpd 31.25 uM, relative to DMSO-only controls, individual runs), 88.0717% and 83.2988% and 94.9104%; on IDE [3] (0-hr incubation, Cmpd 125 uM, relative to DMSO-only controls, individual runs) it was 50.9238% and 50.5662% and 58.9795%. Also, the “Percent Activity (normalized initial velocity of FRET1 hydrolysis)” value was 18.0015% and 16.3891% and 26.5742% at IDE [3] (0-hr incubation, Cmpd 500 uM, relative to DMSO-only controls, individual runs); 81.980% and 88.388% at IDE [3] (4-hr incubation, Cmpd 0.12207 uM, relative to DMSO-only controls, individual runs); 82.055% and 87.340% at IDE [3] (4-hr incubation, Cmpd 0.488281 uM, relative to DMSO-only controls, individual runs); 95.585% and 92.840% at IDE [3] (4-hr incubation, Cmpd 1.95312 uM, relative to DMSO-only controls, individual runs); 94.853% and 93.557% at IDE [3] (4-hr incubation, Cmpd 7.8125 uM, relative to DMSO-only controls, individual runs); 102.800% and 95.281% at IDE [3] (4-hr incubation, Cmpd 31.25 uM, relative to DMSO-only controls, individual runs). For the same substance, the “Percent Activity (normalized initial velocity of FRET1 hydrolysis)” value was 90.299% and 99.861% at IDE [3] (4-hr incubation, Cmpd 125 uM, relative to DMSO-only controls, individual runs); 61.928% and 59.590% at IDE [3] (4-hr incubation, Cmpd 500 uM, relative to DMSO-only controls, individual runs).

For VHWDFRQW-NH2 [P12-1B], the Ki (as a rule, the equilibrium dissociation constant of an inhibitor or competing ligand from its target) at IDE [1] (Cheng-Prusoff, KM 10 uM, substrate concentration 5 uM, read-out: Ki values, Mean) was 40.9 µM; on IDE [1] (substrate FRET1 5 μM, Ki from IC50 with the Cheng-Prusoff equation, read-out: Ki FRET1) it was 41 ± 6.4 µM; at IDE [2] (substrate recombinant human insulin 50 nM, Ki from IC50 with the Cheng-Prusoff equation) it was 7 ± 1.7 µM; at IDE [3] (4-hr incubation, Cheng-Prusoff from IC50, FRET1 KM 10 uM, substrate 5 uM) it was 131 µM. Besides, the IC50 was 52.2 µM and 51.3 µM and 80.5 µM at IDE [1] (individual runs, read-out: IC50s, Run 1-6); 61.4 µM on IDE [1] (read-out: IC50s, Mean); 20.6 µM and 9.35 µM and 12.2 µM at IDE [2] (Replicates 1-3, read-out: IC50s, individual replicates); 14 µM at IDE [2] (N=3, read-out: IC50s, Mean); 61.4 µM at IDE [3] (0-hr incubation, mean of runs, read-out: IC50s, Mean); 200 µM and 193 µM on IDE [3] (4-hr incubation, individual replicates, read-out: IC50s). The IC50 on IDE [3] (4-hr incubation, mean of 2 replicates, read-out: IC50s, Mean) was 197 µM. Further, the “IC50 <500 uM?” value on IDE [1] (initial test at 500 uM) is “YES”. In addition, the remaining activity at 500 µM on IDE [1] (judged as IC50 <100 uM?, individual replicates, read-out: Percent activity at 500 uM, Replicate 1-4) amounted to 32.1%; at IDE [3] (4 h, 4-hr incubation, Cmpd 500 uM, relative to DMSO-only controls, individual runs, read-out: Percent Activity (normalized initial velocity of FRET1 hydrolysis)) it was 9.02%. For the same substance, the remaining activity at 0.12207 µM at IDE [3] (4 h, 4-hr incubation, Cmpd 0.12207 uM, relative to DMSO-only controls, individual runs, read-out: Percent Activity (normalized initial velocity of FRET1 hydrolysis)) stood at 90.2%. In addition, at IDE [3] (4 h, 4-hr incubation, Cmpd 0.488281 uM, relative to DMSO-only controls, individual runs, read-out: Percent Activity (normalized initial velocity of FRET1 hydrolysis)), the remaining activity at 0.488281 µM turned out to be 82.8%. Besides, the remaining activity at 1.95312 µM on IDE [3] (4 h, 4-hr incubation, Cmpd 1.95312 uM, relative to DMSO-only controls, individual runs, read-out: Percent Activity (normalized initial velocity of FRET1 hydrolysis)) worked out at 80.5%. For the same substance, at IDE [3] (4 h, 4-hr incubation, Cmpd 7.8125 uM, relative to DMSO-only controls, individual runs, read-out: Percent Activity (normalized initial velocity of FRET1 hydrolysis)), the remaining activity at 7.8125 µM was determined as 70.1%. Also, on IDE [3] (4 h, 4-hr incubation, Cmpd 31.25 uM, relative to DMSO-only controls, individual runs, read-out: Percent Activity (normalized initial velocity of FRET1 hydrolysis)), the remaining activity at 31.25 µM turned out to be 51.8%. In addition, the remaining activity at 125 µM on IDE [3] (4 h, 4-hr incubation, Cmpd 125 uM, relative to DMSO-only controls, individual runs, read-out: Percent Activity (normalized initial velocity of FRET1 hydrolysis)) was 36.3%.

These data come from publication PMC5814047, “Peptidic inhibitors of insulin-degrading enzyme with potential for dermatological applications discovered via phage display” (PLoS ONE, 2018).
